Several values for one entry are separate records, joined by “and”; a condition that tells them apart may be missing. Equal values may be shown once.
How the values were obtained:
Angiotensin II Receptor = biological target: T1, Angiotensin II Receptor (Bos taurus, UniProt P25104); experiment: Receptor Binding Assay: competition with [^125 I](Sar^1, Ile^8)AngII on adrenal cortex microsomal membranes; set-up: species or system beef; conditions: for IC50: beef adrenal cortex membranes, [^125 I](Sar^1, Ile^8)AngII, 60 min, room temperature, pH 7.4
T1 construct: The brownish tissue forming the adrenal cortex is scraped off and finely minced with scissors before homogenization; tissue Maxwell-Cohen (local slaughter house); host or cells: beef adrenal cortex, microsomal membranes
T1 sequence (P25104 1-359): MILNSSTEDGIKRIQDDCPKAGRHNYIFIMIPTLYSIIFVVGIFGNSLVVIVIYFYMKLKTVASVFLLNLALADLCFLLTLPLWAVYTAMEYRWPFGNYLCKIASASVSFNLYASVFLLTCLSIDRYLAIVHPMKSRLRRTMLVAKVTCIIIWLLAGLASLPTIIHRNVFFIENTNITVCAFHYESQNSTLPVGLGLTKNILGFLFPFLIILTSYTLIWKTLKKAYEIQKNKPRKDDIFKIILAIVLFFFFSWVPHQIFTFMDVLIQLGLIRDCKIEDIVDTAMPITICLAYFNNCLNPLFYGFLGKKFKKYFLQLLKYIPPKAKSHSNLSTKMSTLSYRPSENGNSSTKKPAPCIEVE
Source text: Beef adrenals are obtained from a local slaughter house (Maxwell-Cohen). […] All unlabeled AngII analogs, Dimethylsulfoxide (DMSO), nucleotides, bovine serum albumin (BSA) are purchased from Sigma Chemical Co., St. Louis, Mo. U.S.A.
Approximately sixteen (16) to twenty (20) beef adrenal glands are processed as follows: fresh adrenal glands received on crushed ice are cleaned of fatty tissues and the tough membranes encapsulating the glands are removed and discarded. The brownish tissue forming the adrenal cortex is scraped off and finely minced with scissors before homogenization. Care is taken to avoid contamination with medullary tissue during dissection. The scraped cortices are suspended in twenty volumes of an ice-cold buffer medium consisting of 10 mM Tris.HCl (pH 7.4 at 22° C.) and containing 1.0 mM EDTA and 0.2M sucrose. Unless otherwise indicated, all subsequent operations are done at 4° C. […] The homogenate is centrifuged first at low speed (3,000× g) for 10 min. The resulting pellet is discarded and the supernatant fluid recentrifuged at 10,000× g for 15 minutes to give a P2 pellet. […] The translucent final pellet is harvested and combined in a small volume (20-50.0 ml) of 50.0 mM Tris.HCl buffer, pH 7.2. […] The pelleted membrane is reconstituted in 50.0 mM Tris.HCl buffer containing 0.1 mM of phenylmethylsulfonyl fluoride (PMSF) to give approximately a protein concentration of 2.5 mg per ml of tissue suspension. The membrane preparation is finally aliquoted in 1.0 ml volumes and stored at -70° C. until use in the binding assays.
Assays are performed in triplicate. The wells are left undisturbed for 60 min. at room temperature. […] The filter discs are washed with 10×1.0 ml of cold 0.9% NaCl to remove unbound ligand. […] This method is routinely used. The filters are removed from the filter grid and counted in a Parkard® Cobra Gamma Counter for 1 min. (Packard Instrument Co., Downers Grove, Ill., U.S.A.).

[1] = system: angiotensin II vasopressor response; experiment: AII challenge: inhibition of angiotensin II vasopressor response in conscious SHR; type: in vivo, rat (Male Okamoto-Aoki SHR); conditions: 3 mg/kg iv; for % Inhibition / Average Change: n = 2
Source text: By administering a compound of this invention to a rat, and then challenging with angiotensin II, a blockage of the vasopressor response is realized.
Conscious Male Okamoto-Aoki SHR, 16-20 weeks old, weighing approximately 330 g are purchased from Charles River Labs (Wilmington, Mass.). Conscious rats are restrained in a supine position with elastic tape. The area at the base of the tail is locally anesthetized by subcutaneous infiltration with 2% procaine. The ventral caudal artery and vein are isolated, and a cannula made of polyethylene (PE) 10-20 tubing (fused together by heat) is passed into the lower abdominal aorta and vena cava, respectively. The cannula is secured, heparinized (1,000 I.U./ml), sealed and the wound is closed. The animals are placed in plastic restraining cages in an upright position. The cannula is attached to a Statham P23Db pressure transducer, and pulsatile blood pressure is recorded to 10-15 minutes with a Gould Brush recorder. (Chan et al., (Drug Development Res., 18:75-94, 1989).
Angiotensin II (human sequence, Sigma Chem. Co., St. Louis, Mo.) of 0.05 and 0.1 μg/kg i.v. is injected into all rats (predosing response). Then a test compound, vehicle or a known angiotensin II antagonist is administered i.v., i.p. or orally to each set of rats. The two doses of angiotensin II are given to each rat again at 30. 60. 90. 120. 180. 240 and 300 minutes post dosing the compound or vehicle. The vasopressor response of angiotensin II is measured for the increase in systolic blood pressure in mmHg. The percentage of antagonism or blockade of the vasopressor response of angiotensin II by a compound is calculated using the vasopressor response (increase in systolic blood pressure) of angiotensin II of each rat predosing the compound as 100%. A compound is considered active if at 30 mg/kg i.v. it antagonized at least 50% of the response.

[2] = AII 0.05 mcg/kg, 30 min post dose
[3] = AII 0.05 mcg/kg, 60 min post dose
[4] = AII 0.05 mcg/kg, 90 min post dose
[5] = AII 0.05 mcg/kg, 120 min post dose
[6] = AII 0.05 mcg/kg, 180 min post dose
[7] = AII 0.05 mcg/kg, 240 min post dose
[8] = AII 0.05 mcg/kg, 300 min post dose
[9] = AII 0.1 mcg/kg, 30 min post dose
[10] = AII 0.1 mcg/kg, 60 min post dose
[11] = AII 0.1 mcg/kg, 90 min post dose
[12] = AII 0.1 mcg/kg, 120 min post dose
[13] = AII 0.1 mcg/kg, 180 min post dose
[14] = AII 0.1 mcg/kg, 240 min post dose
[15] = AII 0.1 mcg/kg, 300 min post dose

Compound: CCCCc1nc2ccc(C3CCC4CCCC4O3)cc2c(=O)n1Cc1ccc(-c2ccccc2-c2nn[nH]n2)cc1 (stereo not shown) [Example 10]
- IC50 (Angiotensin II Receptor): 105 nM

Compound: CCCCc1nc2ccc(C3CCC4CCCCC4O3)cc2c(=O)n1Cc1ccc(-c2ccccc2-c2nn[nH]n2)cc1 (stereo not shown) [Example 11]
- Change (response to AII, individual rat) [1, 2]: 15 mmHg and 20 mmHg
- % Inhibition [1, 2]: 59%
- Average Change [1, 2]: 17.5 mmHg
- Change (response to AII, individual rat) [1, 3]: 30 mmHg and 15 mmHg
- % Inhibition [1, 3]: 47%
- Average Change [1, 3]: 22.5 mmHg
- Change (response to AII, individual rat) [1, 4]: 30 mmHg and 10 mmHg
- % Inhibition [1, 4]: 53%
- Average Change [1, 4]: 20 mmHg
- Change (response to AII, individual rat) [1, 5]: 10 mmHg
- % Inhibition [1, 5]: 76%
- Average Change [1, 5]: 10 mmHg
- Change (response to AII, individual rat) [1, 6]: 30 mmHg and 35 mmHg
- % Inhibition [1, 6]: 24%
- Average Change [1, 6]: 32.5 mmHg
- Change (response to AII, individual rat) [1, 7]: 20 mmHg and 7 mmHg
- % Inhibition [1, 7]: 68%
- Average Change [1, 7]: 13.5 mmHg
- Change (response to AII, individual rat) [1, 8]: 30 mmHg and 15 mmHg
- % Inhibition [1, 8]: 47%
- Average Change [1, 8]: 22.5 mmHg
- Change (response to AII, individual rat) [1, 9]: 10 mmHg and 30 mmHg
- % Inhibition [1, 9]: 65%
- Average Change [1, 9]: 20 mmHg
- Change (response to AII, individual rat) [1, 10]: 20 mmHg and 10 mmHg
- % Inhibition [1, 10]: 74%
- Average Change [1, 10]: 15 mmHg
- Change (response to AII, individual rat) [1, 11]: 30 mmHg and 25 mmHg
- % Inhibition [1, 11]: 52%
- Average Change [1, 11]: 27.5 mmHg
- Change (response to AII, individual rat) [1, 12]: 15 mmHg and 25 mmHg
- % Inhibition [1, 12]: 65%
- Average Change [1, 12]: 20 mmHg
- Change (response to AII, individual rat) [1, 13]: 35 mmHg and 20 mmHg
- % Inhibition [1, 13]: 52%
- Average Change [1, 13]: 27.5 mmHg
- Change (response to AII, individual rat) [1, 14]: 35 mmHg and 30 mmHg
- % Inhibition [1, 14]: 43%
- Average Change [1, 14]: 32.5 mmHg
- Change (response to AII, individual rat) [1, 15]: 35 mmHg and 30 mmHg
- % Inhibition [1, 15]: 43%
- Average Change [1, 15]: 32.5 mmHg
- Response After AII (individual rat) ([1]; after AII 0.05 mcg/kg, 30 min post dose): 260 mmHg and 265 mmHg
- Response After AII (individual rat) ([1]; after AII 0.05 mcg/kg, 60 min post dose): 260 mmHg and 255 mmHg
- Response After AII (individual rat) ([1]; after AII 0.05 mcg/kg, 90 min post dose): 265 mmHg and 245 mmHg
- Response After AII (individual rat) ([1]; after AII 0.05 mcg/kg, 120 min post dose): 255 mmHg and 240 mmHg
- Response After AII (individual rat) ([1]; after AII 0.05 mcg/kg, 180 min post dose): 265 mmHg and 260 mmHg
- Response After AII (individual rat) ([1]; after AII 0.05 mcg/kg, 240 min post dose): 250 mmHg and 240 mmHg
- Response After AII (individual rat) ([1]; after AII 0.05 mcg/kg, 300 min post dose): 275 mmHg and 255 mmHg
- Response After AII (individual rat) ([1]; after AII 0.1 mcg/kg, 30 min post dose): 260 mmHg and 280 mmHg
- Response After AII (individual rat) ([1]; after AII 0.1 mcg/kg, 60 min post dose): 260 mmHg and 255 mmHg
- Response After AII (individual rat) ([1]; after AII 0.1 mcg/kg, 90 min post dose): 285 mmHg and 260 mmHg
- Response After AII (individual rat) ([1]; after AII 0.1 mcg/kg, 120 min post dose): 255 mmHg and 250 mmHg
- Response After AII (individual rat) ([1]; after AII 0.1 mcg/kg, 180 min post dose): 270 mmHg and 255 mmHg
- Response After AII (individual rat) ([1]; after AII 0.1 mcg/kg, 240 min post dose): 285 mmHg and 255 mmHg
- Response After AII (individual rat) ([1]; after AII 0.1 mcg/kg, 300 min post dose): 275 mmHg
- Control Before AII (individual rat) ([1]; before AII 0.05 mcg/kg, 30 min post dose): 245 mmHg
- Control Before AII (individual rat) ([1]; before AII 0.05 mcg/kg, 60 min post dose): 230 mmHg and 240 mmHg
- Control Before AII (individual rat) ([1]; before AII 0.05 mcg/kg, 90 min post dose): 235 mmHg
- Control Before AII (individual rat) ([1]; before AII 0.05 mcg/kg, 120 min post dose): 245 mmHg and 230 mmHg
- Control Before AII (individual rat) ([1]; before AII 0.05 mcg/kg, 180 min post dose): 235 mmHg and 225 mmHg
- Control Before AII (individual rat) ([1]; before AII 0.05 mcg/kg, 240 min post dose): 230 mmHg and 233 mmHg
- Control Before AII (individual rat) ([1]; before AII 0.05 mcg/kg, 300 min post dose): 245 mmHg and 240 mmHg
- Control Before AII (individual rat) ([1]; before AII 0.1 mcg/kg, 30 min post dose): 250 mmHg
- Control Before AII (individual rat) ([1]; before AII 0.1 mcg/kg, 60 min post dose): 240 mmHg and 245 mmHg
- Control Before AII (individual rat) ([1]; before AII 0.1 mcg/kg, 90 min post dose): 255 mmHg and 235 mmHg
- Control Before AII (individual rat) ([1]; before AII 0.1 mcg/kg, 120 min post dose): 240 mmHg and 225 mmHg
- Control Before AII (individual rat) ([1]; before AII 0.1 mcg/kg, 180 min post dose): 235 mmHg
- Control Before AII (individual rat) ([1]; before AII 0.1 mcg/kg, 240 min post dose): 250 mmHg and 225 mmHg
- Control Before AII (individual rat) ([1]; before AII 0.1 mcg/kg, 300 min post dose): 240 mmHg and 245 mmHg
- IC50 (Angiotensin II Receptor): 132 nM

Compound: [^125 I](Sar^1, Ile^8)AngII [reference compound]
- Specific binding for [^125 I](Sar^1, Ile^8)AngII (Angiotensin II Receptor; non-specific binding with 1.0 μM unlabeled (Sar^1, Ile^8)AngII): greater than 90%

Reference: patent US5338736A, “Angiotensin II receptor blocking 2,3,6-substituted quinazolinones” (American Cyanamid Company, priority 1993, dated 1994)
